Data: the NIST ThermoML archive (doi:10.1021/acs.jced.6b00350)
Where “and” joins values, the source holds several entries; their conditions need not be identical. Identical values can stand only once. Numbers after ± are expanded uncertainties.

Conditions: Liquid, Hot wire method

## FC(F)CC(F)(F)F [1,1,1,3,3-pentafluoropropane]
262.46 K, 31214 kPa
  thermal conductivity: 0.1107 ± 0.0014 W/m/K
262.47 K, 25250 kPa
  thermal conductivity: 0.1091 ± 0.0014 W/m/K
262.47 K, 31210 kPa
  thermal conductivity: 0.1107 ± 0.0014 W/m/K
262.48 K, 8852 kPa
  thermal conductivity: 0.1036 ± 0.0013 W/m/K
262.48 K, 14086 kPa
  thermal conductivity: 0.1051 ± 0.0013 W/m/K
262.48 K, 14126 kPa
  thermal conductivity: 0.1053 ± 0.0013 W/m/K
262.49 K, 4309 kPa
  thermal conductivity: 0.1016 ± 0.0013 W/m/K
262.49 K, 4315 kPa
  thermal conductivity: 0.1017 ± 0.0013 W/m/K
262.5 K, 19581 kPa
  thermal conductivity: 0.1068 ± 0.0014 W/m/K
262.51 K, 19565 kPa
  thermal conductivity: 0.1063 ± 0.0014 W/m/K
262.54 K, 274 kPa
  thermal conductivity: 0.09981 ± 0.0013 W/m/K
262.55 K, 264 kPa
  thermal conductivity: 0.09976 ± 0.0013 W/m/K
262.84 K, 36891 kPa
  thermal conductivity: 0.1121 ± 0.0014 W/m/K
262.84 K, 36917 kPa
  thermal conductivity: 0.112 ± 0.0014 W/m/K
262.84 K, 43922 kPa
  thermal conductivity: 0.1137 ± 0.0014 W/m/K
262.85 K, 43951 kPa
  thermal conductivity: 0.1138 ± 0.0014 W/m/K
262.85 K, 51258 kPa
  thermal conductivity: 0.1158 ± 0.0015 W/m/K
262.86 K, 51253 kPa
  thermal conductivity: 0.1158 ± 0.0015 W/m/K
262.86 K, 58802 kPa
  thermal conductivity: 0.1175 ± 0.0015 W/m/K
262.87 K, 58823 kPa
  thermal conductivity: 0.1177 ± 0.0015 W/m/K
262.87 K, 68778 kPa
  thermal conductivity: 0.12 ± 0.0015 W/m/K
262.87 K, 68811 kPa
  thermal conductivity: 0.1201 ± 0.0015 W/m/K
262.89 K, 68892 kPa
  thermal conductivity: 0.1203 ± 0.0015 W/m/K
262.9 K, 68869 kPa
  thermal conductivity: 0.1204 ± 0.0015 W/m/K
262.97 K, 25291 kPa
  thermal conductivity: 0.1088 ± 0.0014 W/m/K
262.97 K, 31137 kPa
  thermal conductivity: 0.1104 ± 0.0014 W/m/K
262.97 K, 31171 kPa
  thermal conductivity: 0.1105 ± 0.0014 W/m/K
262.98 K, 25286 kPa
  thermal conductivity: 0.1085 ± 0.0014 W/m/K
263 K, 8795 kPa
  thermal conductivity: 0.1032 ± 0.0013 W/m/K
263 K, 14094 kPa
  thermal conductivity: 0.105 ± 0.0013 W/m/K
263 K, 14117 kPa
  thermal conductivity: 0.1048 ± 0.0013 W/m/K
263.01 K, 8802 kPa
  thermal conductivity: 0.1032 ± 0.0013 W/m/K
263.01 K, 19580 kPa
  thermal conductivity: 0.1068 ± 0.0014 W/m/K
263.01 K, 19587 kPa
  thermal conductivity: 0.1069 ± 0.0014 W/m/K
263.02 K, 4283 kPa
  thermal conductivity: 0.1017 ± 0.0013 W/m/K
263.04 K, 4280 kPa
  thermal conductivity: 0.1019 ± 0.0013 W/m/K
263.09 K, 251 kPa
  thermal conductivity: 0.09992 ± 0.0013 W/m/K
263.09 K, 258 kPa
  thermal conductivity: 0.1003 ± 0.0013 W/m/K
263.37 K, 43936 kPa
  thermal conductivity: 0.1139 ± 0.0014 W/m/K
263.37 K, 51250 kPa
  thermal conductivity: 0.1158 ± 0.0015 W/m/K
263.37 K, 68817 kPa
  thermal conductivity: 0.1201 ± 0.0015 W/m/K
263.38 K, 43899 kPa
  thermal conductivity: 0.1139 ± 0.0014 W/m/K
263.38 K, 51246 kPa
  thermal conductivity: 0.1158 ± 0.0015 W/m/K
263.38 K, 58767 kPa
  thermal conductivity: 0.1179 ± 0.0015 W/m/K
263.38 K, 58789 kPa
  thermal conductivity: 0.1175 ± 0.0015 W/m/K
263.38 K, 68795 kPa
  thermal conductivity: 0.12 ± 0.0015 W/m/K
263.39 K, 68867 kPa
  thermal conductivity: 0.1202 ± 0.0015 W/m/K
263.39 K, 68877 kPa
  thermal conductivity: 0.1202 ± 0.0015 W/m/K
281.24 K, 123 kPa
  thermal conductivity: 0.09294 ± 0.0012 W/m/K
281.26 K, 5085 kPa
  thermal conductivity: 0.09534 ± 0.0012 W/m/K
281.26 K, 10502 kPa
  thermal conductivity: 0.09742 ± 0.0013 W/m/K
281.26 K, 16109 kPa
  thermal conductivity: 0.09972 ± 0.0013 W/m/K
281.27 K, 5081 kPa
  thermal conductivity: 0.09537 ± 0.0012 W/m/K
281.27 K, 10497 kPa
  thermal conductivity: 0.09773 ± 0.0013 W/m/K
281.27 K, 16120 kPa
  thermal conductivity: 0.09962 ± 0.0013 W/m/K
281.27 K, 36450 kPa
  thermal conductivity: 0.1067 ± 0.0014 W/m/K
281.28 K, 29163 kPa
  thermal conductivity: 0.1037 ± 0.0013 W/m/K and 0.1042 ± 0.0013 W/m/K
281.28 K, 36455 kPa
  thermal conductivity: 0.1069 ± 0.0014 W/m/K
281.29 K, 22340 kPa
  thermal conductivity: 0.1017 ± 0.0013 W/m/K and 0.1016 ± 0.0013 W/m/K
281.31 K, 44258 kPa
  thermal conductivity: 0.1094 ± 0.0014 W/m/K
281.32 K, 44270 kPa
  thermal conductivity: 0.1086 ± 0.0014 W/m/K
281.36 K, 52956 kPa
  thermal conductivity: 0.1121 ± 0.0014 W/m/K
281.37 K, 61439 kPa
  thermal conductivity: 0.1132 ± 0.0014 W/m/K
281.37 K, 61447 kPa
  thermal conductivity: 0.1138 ± 0.0014 W/m/K
281.39 K, 68582 kPa
  thermal conductivity: 0.1153 ± 0.0015 W/m/K
281.4 K, 68575 kPa
  thermal conductivity: 0.1156 ± 0.0015 W/m/K
281.68 K, 36448 kPa
  thermal conductivity: 0.1069 ± 0.0014 W/m/K
281.69 K, 123 kPa
  thermal conductivity: 0.09324 ± 0.0012 W/m/K
281.69 K, 16102 kPa
  thermal conductivity: 0.09989 ± 0.0013 W/m/K
281.69 K, 16110 kPa
  thermal conductivity: 0.0999 ± 0.0013 W/m/K
281.69 K, 36460 kPa
  thermal conductivity: 0.1069 ± 0.0014 W/m/K
281.7 K, 123 kPa
  thermal conductivity: 0.09319 ± 0.0012 W/m/K
281.7 K, 10499 kPa
  thermal conductivity: 0.09772 ± 0.0013 W/m/K
281.7 K, 29156 kPa
  thermal conductivity: 0.1046 ± 0.0013 W/m/K
281.71 K, 10506 kPa
  thermal conductivity: 0.09793 ± 0.0013 W/m/K
281.71 K, 29164 kPa
  thermal conductivity: 0.1045 ± 0.0013 W/m/K
281.71 K, 44250 kPa
  thermal conductivity: 0.109 ± 0.0014 W/m/K
281.72 K, 5099 kPa
  thermal conductivity: 0.09526 ± 0.0012 W/m/K
281.72 K, 22328 kPa
  thermal conductivity: 0.1023 ± 0.0013 W/m/K
281.72 K, 22339 kPa
  thermal conductivity: 0.1018 ± 0.0013 W/m/K
281.72 K, 44261 kPa
  thermal conductivity: 0.1096 ± 0.0014 W/m/K
281.73 K, 5092 kPa
  thermal conductivity: 0.09542 ± 0.0012 W/m/K
281.74 K, 52967 kPa
  thermal conductivity: 0.1113 ± 0.0014 W/m/K
281.74 K, 61451 kPa
  thermal conductivity: 0.1132 ± 0.0014 W/m/K
281.75 K, 52979 kPa
  thermal conductivity: 0.1116 ± 0.0014 W/m/K
281.75 K, 61458 kPa
  thermal conductivity: 0.1139 ± 0.0014 W/m/K
281.78 K, 68577 kPa
  thermal conductivity: 0.1148 ± 0.0015 W/m/K
281.78 K, 68579 kPa
  thermal conductivity: 0.1154 ± 0.0015 W/m/K
282.14 K, 36443 kPa
  thermal conductivity: 0.1066 ± 0.0014 W/m/K
282.14 K, 36448 kPa
  thermal conductivity: 0.1061 ± 0.0014 W/m/K
282.16 K, 44239 kPa
  thermal conductivity: 0.109 ± 0.0014 W/m/K
282.16 K, 44256 kPa
  thermal conductivity: 0.1087 ± 0.0014 W/m/K
282.17 K, 29157 kPa
  thermal conductivity: 0.1038 ± 0.0013 W/m/K
282.17 K, 29166 kPa
  thermal conductivity: 0.1045 ± 0.0013 W/m/K
282.18 K, 16109 kPa
  thermal conductivity: 0.09967 ± 0.0013 W/m/K
282.18 K, 52974 kPa
  thermal conductivity: 0.1114 ± 0.0014 W/m/K
282.18 K, 61442 kPa
  thermal conductivity: 0.114 ± 0.0014 W/m/K
282.18 K, 61445 kPa
  thermal conductivity: 0.1137 ± 0.0014 W/m/K
282.19 K, 16097 kPa
  thermal conductivity: 0.09999 ± 0.0013 W/m/K
282.19 K, 52971 kPa
  thermal conductivity: 0.1111 ± 0.0014 W/m/K
282.2 K, 10491 kPa
  thermal conductivity: 0.09788 ± 0.0013 W/m/K
282.2 K, 22326 kPa
  thermal conductivity: 0.1018 ± 0.0013 W/m/K
282.2 K, 22330 kPa
  thermal conductivity: 0.1022 ± 0.0013 W/m/K
282.21 K, 122 kPa
  thermal conductivity: 0.09344 ± 0.0012 W/m/K
282.21 K, 123 kPa
  thermal conductivity: 0.09288 ± 0.0012 W/m/K
282.21 K, 10493 kPa
  thermal conductivity: 0.0975 ± 0.0013 W/m/K
282.21 K, 68577 kPa
  thermal conductivity: 0.1158 ± 0.0015 W/m/K
282.22 K, 5074 kPa
  thermal conductivity: 0.09546 ± 0.0012 W/m/K
282.22 K, 68599 kPa
  thermal conductivity: 0.1157 ± 0.0015 W/m/K
282.23 K, 5088 kPa
  thermal conductivity: 0.0957 ± 0.0012 W/m/K
282.64 K, 61432 kPa
  thermal conductivity: 0.1136 ± 0.0014 W/m/K
282.65 K, 36437 kPa
  thermal conductivity: 0.1064 ± 0.0014 W/m/K
282.65 K, 44235 kPa
  thermal conductivity: 0.109 ± 0.0014 W/m/K
282.65 K, 61439 kPa
  thermal conductivity: 0.1136 ± 0.0014 W/m/K
282.66 K, 44247 kPa
  thermal conductivity: 0.1092 ± 0.0014 W/m/K
282.67 K, 52971 kPa
  thermal conductivity: 0.1109 ± 0.0014 W/m/K
282.67 K, 52972 kPa
  thermal conductivity: 0.1115 ± 0.0014 W/m/K
282.68 K, 29156 kPa
  thermal conductivity: 0.104 ± 0.0013 W/m/K
282.68 K, 29162 kPa
  thermal conductivity: 0.104 ± 0.0013 W/m/K
282.68 K, 68589 kPa
  thermal conductivity: 0.1157 ± 0.0015 W/m/K
282.69 K, 68577 kPa
  thermal conductivity: 0.1155 ± 0.0015 W/m/K
282.71 K, 16110 kPa
  thermal conductivity: 0.09975 ± 0.0013 W/m/K and 0.09954 ± 0.0013 W/m/K
282.72 K, 22340 kPa
  thermal conductivity: 0.1019 ± 0.0013 W/m/K
282.73 K, 22342 kPa
  thermal conductivity: 0.1021 ± 0.0013 W/m/K
282.74 K, 10500 kPa
  thermal conductivity: 0.09762 ± 0.0013 W/m/K
282.77 K, 5087 kPa
  thermal conductivity: 0.09576 ± 0.0012 W/m/K
282.78 K, 123 kPa
  thermal conductivity: 0.09344 ± 0.0012 W/m/K and 0.09326 ± 0.0012 W/m/K
282.78 K, 5079 kPa
  thermal conductivity: 0.0959 ± 0.0012 W/m/K
283.17 K, 61441 kPa
  thermal conductivity: 0.1135 ± 0.0014 W/m/K
283.17 K, 61445 kPa
  thermal conductivity: 0.1138 ± 0.0014 W/m/K
283.19 K, 68547 kPa
  thermal conductivity: 0.1156 ± 0.0015 W/m/K
283.19 K, 68582 kPa
  thermal conductivity: 0.1158 ± 0.0015 W/m/K
283.2 K, 36442 kPa
  thermal conductivity: 0.1068 ± 0.0014 W/m/K
283.2 K, 36446 kPa
  thermal conductivity: 0.1068 ± 0.0014 W/m/K
283.2 K, 44231 kPa
  thermal conductivity: 0.109 ± 0.0014 W/m/K
283.2 K, 44239 kPa
  thermal conductivity: 0.1089 ± 0.0014 W/m/K
283.2 K, 52973 kPa
  thermal conductivity: 0.1113 ± 0.0014 W/m/K
283.21 K, 52984 kPa
  thermal conductivity: 0.1112 ± 0.0014 W/m/K
